Assays:
F. prausnitzii [1] = experiment: Model organism test of sugar alcohols as energy substrate for F. prausnitzii; format: cell-based, Faecalibacterium prausnitzii; conditions: FIGS. 4A and 4B
Excerpt: Using a model organism, the effect of inositol and sorbitol as energy substrate for F. prausnitzii was confirmed (FIGS. 4A and 4B), but not xylitol. Thus, all sugar alcohols cannot be assumed to have the same effect on F. prausnitzii.

F. prausnitzii [2] = experiment: Growth of F. prausnitzii with added vitamins, glucose as substrate; format: cell-based, Faecalibacterium prausnitzii; conditions: FIG. 6D

OC[C@@H](O)[C@@H](O)CO [erythritol]
effect as energy substrate for F. prausnitzii (F. prausnitzii [1]): confirmed

O[C@H]1[C@H](O)[C@@H](O)[C@H](O)[C@@H](O)[C@H]1O [inositol]
effect as energy substrate for F. prausnitzii (F. prausnitzii [1]): confirmed

OC[C@@H](O)[C@@H](O)[C@H](O)[C@@H](O)CO [sorbitol]
effect as energy substrate for F. prausnitzii (F. prausnitzii [1]): confirmed

OC[C@@H](O)[C@H](O)[C@@H](O)CO [xylitol, reference compound]
effect as energy substrate for F. prausnitzii (F. prausnitzii [1]): not

Vitamin B12
growth of F. prausnitzii compared with control (F. prausnitzii [2]): more than control

Source: US20240226030A1, “COMPOSITIONS AND METHODS USING AT LEAST ONE OF INOSITOL, ERYTHRITOL OR SORBITOL TO ENHANCE GROWTH OF FAECALIBACTERIUM PRAUSNITZII” (SOCIÉTÉ DES PRODUITS NESTLE S.A., priority 2021, published 2024)
